Assay results as given in US6288091A, “Antiherpes virus compounds and methods for their preparation and use” (Boehringer Ingelheim Ltd., priority 1999, dated 2001).
Where two headings read alike, the source gives them in different places.

Experiments:
HCMV (strain AD169) = assay: Inhibition of HCMV replication, ELISA assay (Hs-68 cells); type: cell-based, Human Cytomegalovirus (HCMV); settings: read-out: ELISA CMV EC50
Protocol: C) Inhibition of Human Cytomegalovirus (HCMV) Replication
The effect of compounds on the replication of HCMV has been measured by using an ELISA-based assay (ELISA) and a plaque reduction assay (PRA).
Hs-68 cells (ATCC # CRL 1635) were seeded in 96 well microtiter plates at 10,000 cells/well in 100 μL of DMEM medium (Gibco Canada Inc.) supplemented with 10% fetal bovine serum (FBS, Gibco Canada Inc.). The plates were incubated for 3 days at 37° to allow the cells to reach 80-90% confluency prior to the assay.
The medium was removed from wells by aspiration. The cells then were infected at a multiplicity of infection (MOI) of 0.01 PFU/cell with 50 μL of HCMV (strain AD169, ATCC VR-538) in DMEM medium supplemented with 5% heat inactivated FBS (assay medium). The virus was allowed to adsorb to cells for 2 h at 37°. Following viral adsorption, the medium was removed from the wells by aspiration. The cells were washed twice with 200 μL of assay medium to remove unabsorbed virus. The cells were then incubated with or without 100 μL of appropriate concentrations of test reagent in assay medium. After 8 days of incubation at 37°, the extent of viral replication was determined by an ELISA assay which detects the late structural protein p28 of HCMV.
Eight days after infection, the medium was aspirated from the wells. Non-specific binding sites were blocked by adding 200 μL of phosphate buffered saline containing 1% (w/v) bovine serum albumin (blocking buffer) to each well and incubating the plates for 30 min at room temperature. After removal of the blocking buffer by aspiration, the cells were fixed with 100 μL of cold ethanol-acetone solution (95:5) per well. The plates were placed at -20° for 30 min. The plates were washed 4 times with phosphate buffered saline containing 0.05% (v/v) polyoxyethylene sorbitan monolaurate (Tween®). Thereafter, 100 μL of mAb UL99 (Advanced Biotechnologies Inc., #13-130-100) recognizing HCMV protein p28 was added to each wells and plates were incubated for 2 h at room temperature. The plates were washed four times with 200 μL of the above-noted phosphate buffered saline/Tween-20® solution. The cells were then incubated with 100 μL of sheep anti-mouse IgGγ horseradish peroxidase conjugated for 2 h at room temperature. The plates were then washed four times with 200 μL of above-noted phosphate buffered saline/Tween-20® solution. Thereafter, 100 μL of ortho phenylenediamine dihydrochloride (OPD, Gibco Canada Inc.) solution was added to each well and the plates were agitated on a microplate shaker for 30 min in the dark. Color development was monitored at 450 nm using a microplate spectrophotometer.
The SAS program was used to calculate the % inhibition of viral replication and to generate EC50 values.
The EC50 values obtained according to this assay method for certain thiazolylphenyl derivatives of this invention are listed in the following tables under the heading ELISA CMV.

HSV-1 helicase-primase = target: T1, HSV-1 helicase-primase (Human herpesvirus 1, UniProt P10189+P10236); assay: HSV-1 DNA-dependent ATPase assay (inhibition of HSV-1 helicase-primase); type: biochemical
T1 construct: made in house; host or cells: Sf21 insect cells triply infected with recombinant baculoviruses (UL5, UL8, UL52)
In short: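 ATP hydrolysis was measured as inorganic phosphate (malachite green/molybdate, 650 nm) after 20 min at 34°. Reaction: 3 μg/mL purified Sf21-expressed UL5/UL8/UL52 helicase-primase, 25 μM single-stranded M13 DNA hybridized to 68-mer, 4 mM ATP, pH 7.5 HEPES buffer, 3.3% DMSO. Net absorbance change with and without inhibitor gave DNA-dependent ATPase activity.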

HSV-1 strain F or KOS = assay: Inhibition of herpes simplex virus (HSV-1) replication in cell culture (BHK-21 cells, glycoprotein C ELISA); type: cell-based
In short: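 Replication readout: ELISA for HSV-1 late glycoprotein C (mAb C11, peroxidase-OPD, 450 nm) on glutaraldehyde-fixed cells. Monolayers (~50,000 cells/well) were infected with strain F or KOS (MOI 0.05 PFU/cell), then incubated 24 h at 37° with compound in 2% FBS α-MEM. EC50 derived from % inhibition.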

[1] = Human betaherpesvirus 5, AD169, Hs68, Group 1 Table 3 entries
[2] = Human alphaherpesvirus 1, BHK-21, Group 1 Table 3 entries
[3] = Human betaherpesvirus 5, AD169, Hs68, Group 1 Table 1 entries
[4] = Human alphaherpesvirus 1, BHK-21, Group 1 Table 1 entries
[5] = Human betaherpesvirus 5, AD169, Hs68, Group 1 Table 5 entries
[6] = Human alphaherpesvirus 1, BHK-21, Group 1 Table 5 entries

T1 sequence (P10192 whole entry): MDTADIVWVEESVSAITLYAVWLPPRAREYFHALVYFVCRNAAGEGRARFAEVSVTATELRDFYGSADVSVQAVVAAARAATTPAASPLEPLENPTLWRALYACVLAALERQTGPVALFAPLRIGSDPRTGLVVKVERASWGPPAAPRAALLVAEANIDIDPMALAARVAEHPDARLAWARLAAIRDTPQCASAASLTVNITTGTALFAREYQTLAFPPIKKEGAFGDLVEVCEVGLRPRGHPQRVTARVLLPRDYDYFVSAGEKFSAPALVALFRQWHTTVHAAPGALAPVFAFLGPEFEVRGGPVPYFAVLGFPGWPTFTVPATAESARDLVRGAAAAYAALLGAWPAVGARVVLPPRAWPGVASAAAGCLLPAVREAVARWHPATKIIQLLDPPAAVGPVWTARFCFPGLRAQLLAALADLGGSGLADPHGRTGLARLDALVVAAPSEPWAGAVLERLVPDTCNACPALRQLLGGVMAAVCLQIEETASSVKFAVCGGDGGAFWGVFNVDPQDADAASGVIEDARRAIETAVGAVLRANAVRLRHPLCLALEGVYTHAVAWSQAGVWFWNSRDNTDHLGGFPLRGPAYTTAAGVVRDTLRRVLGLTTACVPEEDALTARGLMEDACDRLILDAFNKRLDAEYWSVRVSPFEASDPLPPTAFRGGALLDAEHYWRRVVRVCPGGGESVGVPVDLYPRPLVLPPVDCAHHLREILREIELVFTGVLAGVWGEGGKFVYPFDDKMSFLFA
T1 sequence (P10236 whole entry): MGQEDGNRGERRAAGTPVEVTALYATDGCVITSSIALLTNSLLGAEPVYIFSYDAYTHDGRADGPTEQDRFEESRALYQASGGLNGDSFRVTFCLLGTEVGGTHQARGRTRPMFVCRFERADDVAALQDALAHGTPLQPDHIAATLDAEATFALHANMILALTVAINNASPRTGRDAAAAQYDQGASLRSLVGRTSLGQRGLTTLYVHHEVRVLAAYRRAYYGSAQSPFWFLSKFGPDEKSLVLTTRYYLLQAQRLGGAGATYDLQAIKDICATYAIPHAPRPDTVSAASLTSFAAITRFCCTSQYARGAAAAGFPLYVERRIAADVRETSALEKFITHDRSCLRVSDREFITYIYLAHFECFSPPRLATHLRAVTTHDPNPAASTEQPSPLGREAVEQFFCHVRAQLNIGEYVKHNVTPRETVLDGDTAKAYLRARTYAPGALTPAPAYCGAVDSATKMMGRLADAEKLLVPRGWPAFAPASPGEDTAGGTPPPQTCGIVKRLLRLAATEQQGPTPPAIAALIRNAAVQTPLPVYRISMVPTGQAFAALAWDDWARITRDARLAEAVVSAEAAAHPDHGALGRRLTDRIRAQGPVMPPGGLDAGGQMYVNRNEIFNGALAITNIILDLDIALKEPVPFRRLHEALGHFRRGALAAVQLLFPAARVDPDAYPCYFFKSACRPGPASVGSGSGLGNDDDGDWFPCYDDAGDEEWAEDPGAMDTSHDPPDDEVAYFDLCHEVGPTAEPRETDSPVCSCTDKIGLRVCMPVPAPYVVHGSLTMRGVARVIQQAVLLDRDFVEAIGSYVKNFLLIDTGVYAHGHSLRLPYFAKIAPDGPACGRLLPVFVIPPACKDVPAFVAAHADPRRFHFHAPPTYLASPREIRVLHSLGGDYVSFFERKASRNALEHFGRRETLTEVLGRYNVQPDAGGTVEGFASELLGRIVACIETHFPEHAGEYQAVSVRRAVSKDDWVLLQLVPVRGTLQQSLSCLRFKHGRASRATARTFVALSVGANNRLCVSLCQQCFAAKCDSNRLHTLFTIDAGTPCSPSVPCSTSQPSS
T1 sequence (P10189 whole entry): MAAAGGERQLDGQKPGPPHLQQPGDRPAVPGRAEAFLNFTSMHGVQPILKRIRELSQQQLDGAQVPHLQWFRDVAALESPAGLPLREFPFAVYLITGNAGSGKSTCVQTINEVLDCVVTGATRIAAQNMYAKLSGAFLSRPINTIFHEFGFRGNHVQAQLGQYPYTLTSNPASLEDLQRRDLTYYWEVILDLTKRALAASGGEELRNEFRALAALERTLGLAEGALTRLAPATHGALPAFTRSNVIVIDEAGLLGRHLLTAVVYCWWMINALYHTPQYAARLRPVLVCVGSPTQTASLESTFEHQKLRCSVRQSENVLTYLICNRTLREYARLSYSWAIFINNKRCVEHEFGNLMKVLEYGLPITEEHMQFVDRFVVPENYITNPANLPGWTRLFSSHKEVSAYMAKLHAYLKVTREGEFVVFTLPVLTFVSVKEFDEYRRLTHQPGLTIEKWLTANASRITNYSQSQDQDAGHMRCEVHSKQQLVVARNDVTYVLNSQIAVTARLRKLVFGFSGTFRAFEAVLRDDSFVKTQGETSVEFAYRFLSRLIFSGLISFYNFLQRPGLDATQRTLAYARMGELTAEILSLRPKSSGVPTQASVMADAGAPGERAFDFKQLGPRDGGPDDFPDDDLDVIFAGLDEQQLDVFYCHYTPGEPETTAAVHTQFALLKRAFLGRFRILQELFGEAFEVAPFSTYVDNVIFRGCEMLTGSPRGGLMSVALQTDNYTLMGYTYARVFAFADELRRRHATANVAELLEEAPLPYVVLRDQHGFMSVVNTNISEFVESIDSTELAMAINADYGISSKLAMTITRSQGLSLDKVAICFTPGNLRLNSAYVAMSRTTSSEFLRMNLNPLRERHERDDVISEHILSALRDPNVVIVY

Row | SMILES | EC50 (HCMV (strain AD169); [1]) [µM] | IC50 (HSV-1 helicase-primase; Group 1 Table 3 entries) [µM] | EC50 (HSV-1 strain F or KOS; [2]) [µM] | EC50 (HCMV (strain AD169); [5]) [µM] | IC50 (HSV-1 helicase-primase; Group 1 Table 5 entries) [µM] | EC50 (HSV-1 strain F or KOS; [6]) [µM] | other results
1 | CN(C(=O)CN(Cc1ccccc1)C(=O)c1ccncc1)c1ccc(-c2csc(N)n2)cc1 [Example 2] | 78 | 1.5 | 0.34 | – | – | – | –
2 | Nc1nc(-c2ccc(NC(=O)CNCCc3ccccc3)cc2)cs1 [Example 2] | – | – | – | – | – | – | EC50 (HCMV (strain AD169); [3]): 3.1 µM; IC50 (HSV-1 helicase-primase; Group 1 Table 1 entries): 4.7 µM; EC50 (HSV-1 strain F or KOS; [4]): 6 µM
3 | CC(C)(C)OC(=O)N1CCC[C@H]1C(=O)Nc1ccc(-c2csc(N)n2)cc1 [Example 4] | – | – | – | – | – | – | EC50 (HCMV (strain AD169); Human betaherpesvirus 5, AD169, Hs68, Group 1 Table 6 entries): > 64 µM; IC50 (HSV-1 helicase-primase; Group 1 Table 6 entries): 0.46 µM; EC50 (HSV-1 strain F or KOS; Human alphaherpesvirus 1, BHK-21, Group 1 Table 6 entries): 0.21 µM
4 | Cc1nc(-c2ccc(NC(=O)CN(Cc3ccccc3)C(=O)C3CCCCC3)cc2)cs1 [Example 4] | 12 | 0.19 | 0.12 | – | – | – | –
5 | CN(C(=O)C1CCCCC1)[C@@H](Cc1ccccc1)C(=O)Nc1ccc(-c2csc(N)n2)cc1 [Example 5] | – | – | – | 9.5 | 0.22 | 0.15 | –
6 | Nc1nc(-c2ccc(NC(=O)[C@@H](Cc3ccccc3)NCc3ccccc3)cc2)cs1 [Example 7] | – | – | – | < 9 | 6.6 | 2.1 | –
7 | CNc1nc(-c2ccc(NC(=O)CN(Cc3ccccc3)C(=O)C3CCCCC3)cc2)cs1 [Example 8] | 9 | 0.05 | 0.002 | – | – | – | –
8 | Nc1nc(-c2ccc(NC(=O)CNCC3CCCCC3)cc2)cs1 [Example 8] | – | – | – | – | – | – | EC50 (HCMV (strain AD169); [3]): 3.6 µM; IC50 (HSV-1 helicase-primase; Group 1 Table 1 entries): 2.9 µM; EC50 (HSV-1 strain F or KOS; [4]): 8 µM
9 | CNc1nc(-c2ccc(NC(=O)CN(CC3CCCCC3)C(=O)c3cccnc3)cc2)cs1 [Example 9] | 5 | 10 | 1.3 | – | – | – | –
10 | CNc1nc(-c2ccc(NC(=O)CN(Cc3ccccc3)C(=O)OC(C)(C)C)cc2)cs1 [Example 10] | 1.1 | 0.31 | 0.008 | – | – | – | –
11 | CN(C)c1nc(-c2ccc(NC(=O)CNCc3ccccc3)cc2)cs1 [Example 12] | > 79 | > 50 | 21 | – | – | – | –
12 | C[C@H](NCc1ccccc1)C(=O)Nc1ccc(-c2csc(N)n2)cc1 [Example 12] | – | – | – | 4.1 | 1.3 | 0.82 | –
13 | CN(C)c1nc(-c2ccc(NC(=O)CNCC3CCCCC3)cc2)cs1 [Example 13] | 36 | > 50 | > 4 | – | – | – | –
14 | C[C@@H](NCc1ccccc1)C(=O)Nc1ccc(-c2csc(N)n2)cc1 [Example 13] | – | – | – | 14 | 2 | 2 | –
15 | Nc1nc(-c2ccc(NC(=O)CNCc3cccs3)cc2)cs1 [Example 13] | – | – | – | – | – | – | EC50 (HCMV (strain AD169); [3]): 8.3 µM; IC50 (HSV-1 helicase-primase; Group 1 Table 1 entries): 3.8 µM; EC50 (HSV-1 strain F or KOS; [4]): 3.7 µM
16 | CN(C)c1nc(-c2ccc(NC(=O)CN(Cc3ccccc3)C(=O)c3ccncc3)cc2)cs1 [Example 14] | 20 | > 50 | 0.5 | – | – | – | –
17 | C[C@@H](C(=O)Nc1ccc(-c2csc(N)n2)cc1)N(Cc1ccccc1)C(=O)C1CCCCC1 [Example 14] | – | – | – | 10 | 0.11 | 0.009 | –
18 | Nc1nc(-c2ccc(NC(=O)CNCCN3CCOCC3)cc2)cs1 [Example 14] | – | – | – | – | – | – | EC50 (HCMV (strain AD169); [3]): 67 µM; IC50 (HSV-1 helicase-primase; Group 1 Table 1 entries): 7.7 µM; EC50 (HSV-1 strain F or KOS; [4]): 3.2 µM
19 | C[C@H](C(=O)Nc1ccc(-c2csc(N)n2)cc1)N(Cc1ccccc1)C(=O)C1CCCCC1 [Example 15] | – | – | – | 3.2 | 0.041 | 0.006 | –
20 | CN(C)c1nc(-c2ccc(NC(=O)CN(Cc3ccccc3)C(=O)OC(C)(C)C)cc2)cs1 [Example 16] | 4.8 | > 50 | 0.009 | – | – | – | –
